These results are taken from ChEMBL document CHEMBL1122047.

Where “and” joins values, the source holds several entries; their conditions need not be identical. Equal values may be shown once.

The target of the test is Substance-P receptor (Cavia porcellus) (UniProt P30547). Description: Relative affinity for Tachykinin receptor 1 compared with [Nle11]-SP.
Chain of Substance-P receptor (Cavia porcellus) (P30547 whole entry): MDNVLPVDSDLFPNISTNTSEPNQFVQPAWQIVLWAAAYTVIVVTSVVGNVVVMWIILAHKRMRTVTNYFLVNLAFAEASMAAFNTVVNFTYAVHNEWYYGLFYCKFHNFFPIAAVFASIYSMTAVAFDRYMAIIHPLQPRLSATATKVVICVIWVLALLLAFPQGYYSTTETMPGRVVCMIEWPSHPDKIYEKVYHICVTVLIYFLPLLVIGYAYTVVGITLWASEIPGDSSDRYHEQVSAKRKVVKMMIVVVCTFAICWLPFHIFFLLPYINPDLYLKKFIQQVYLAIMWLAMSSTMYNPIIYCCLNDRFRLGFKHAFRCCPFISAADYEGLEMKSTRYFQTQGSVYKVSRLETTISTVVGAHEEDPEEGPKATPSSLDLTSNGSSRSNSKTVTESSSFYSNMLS
`CCCC[C@H](NC(=O)[C@H](CC(C)C)NC(=O)CNC(=O)[C@H](Cc1ccccc1)NC(=O)[C@H](Cc1ccc([N+](=O)[O-])cc1)NC(=O)[C@H](CCC(N)=O)NC(=O)[C@H](CCC(N)=O)NC(=O)[C@@H]1CCCN1C(=O)[C@H](CCCCN)NC(=O)[C@@H]1CCCN1C(=O)[C@@H](N)CCCN=C(N)N)C(N)=O` came in with an RA of 10%.
The compound `CCCC[C@H](NC(=O)[C@H](CC(C)C)NC(=O)CNC(=O)[C@H](Cc1ccccc1)NC(=O)[C@H](Cc1ccccc1)NC(=O)[C@H](CCC(N)=O)NC(=O)[C@H](CCC(N)=O)NC(=O)[C@@H]1CCCN1C(=O)[C@H](CCCCN)NC(=O)[C@@H]1CCCN1C(=O)[C@@H](N)CCCN=C(N)N)C(N)=O` had an RA of 100%.
The result for `CC(C)C[C@H](NC(=O)CNC(=O)[C@H](Cc1ccccc1)NC(=O)[C@H](Cc1ccccc1)NC(=O)[C@H](CCC(N)=O)NC(=O)[C@H](CCC(N)=O)NC(=O)[C@@H]1CCCN1C(=O)[C@H](CCCCN)NC(=O)[C@@H]1CCCN1C(=O)[C@@H](N)CCCN=C(N)N)C(=O)N[C@@H](Cc1ccc(N=[N+]=[N-])cc1)C(N)=O` reads 48% and 50%.
For `CC(C)C[C@H](NC(=O)CNC(=O)[C@H](Cc1ccccc1)NC(=O)[C@H](Cc1ccccc1)NC(=O)[C@H](CCC(N)=O)NC(=O)[C@H](CCC(N)=O)NC(=O)[C@@H]1CCCN1C(=O)[C@H](CCCCN)NC(=O)[C@@H]1CCCN1C(=O)[C@@H](N)CCCN=C(N)N)C(=O)N[C@@H](Cc1ccc(N)cc1)C(N)=O` the value was 55% and 69%.
For `CC(C)C[C@H](NC(=O)CNC(=O)[C@H](Cc1ccccc1)NC(=O)[C@H](Cc1ccccc1)NC(=O)[C@H](CCC(N)=O)NC(=O)[C@H](CCC(N)=O)NC(=O)[C@@H]1CCCN1C(=O)[C@H](CCCCN)NC(=O)[C@@H]1CCCN1C(=O)[C@@H](N)CCCN=C(N)N)C(=O)N[C@@H](Cc1ccc([N+]#N)cc1)C(N)=O` the value was 81% and 72%; for `CCCC[C@H](NC(=O)[C@H](CC(C)C)NC(=O)CNC(=O)[C@H](Cc1ccc(N=[N+]=[N-])cc1)NC(=O)[C@H](Cc1ccccc1)NC(=O)[C@H](CCC(N)=O)NC(=O)[C@H](CCC(N)=O)NC(=O)[C@@H]1CCCN1C(=O)[C@H](CCCCN)NC(=O)[C@@H]1CCCN1C(=O)[C@@H](N)CCCN=C(N)N)C(N)=O`, 50%.
Regarding `CC(C)C[C@H](NC(=O)CNC(=O)[C@H](Cc1ccccc1)NC(=O)[C@H](Cc1ccccc1)NC(=O)[C@H](CCC(N)=O)NC(=O)[C@H](CCC(N)=O)NC(=O)[C@@H]1CCCN1C(=O)[C@H](CCCCN)NC(=O)[C@@H]1CCCN1C(=O)[C@@H](N)CCCN=C(N)N)C(=O)N[C@@H](Cc1ccccc1)C(N)=O`, the RA came to 100%.
